Laboratory results published in ChEMBL document CHEMBL4396896, “N-Aminoacyl and N-hydroxyacyl derivatives of diosgenyl 2-amino-2-deoxy-β-d-glucopyranoside: Synthesis, antimicrobial and hemolytic activities” (Bioorg Med Chem, 2019).
Values after ≈ are worked out from the molar mass of the structure shown.

How the values were obtained:
[1] = system: Staphylococcus aureus; experiment: Antibacterial activity against Staphylococcus aureus ATCC 25923 incubated in MHB II under aerobic condition for 18 hrs using initial inoculum of 5 x 10^5 CFU/ml by serial dilution method; format: functional; conditions: ATCC 25923, 18 h
[2] = system: Bacillus subtilis; experiment: Antibacterial activity against Bacillus subtilis ATCC 6633 incubated in MHB II under aerobic condition for 18 hrs using initial inoculum of 5 x 10^5 CFU/ml by serial dilution method; format: functional; conditions: ATCC 6633, 18 h
[3] = system: Staphylococcus epidermidis; experiment: Antibacterial activity against Staphylococcus epidermidis PCM 2118 incubated in MHB II under aerobic condition for 18 hrs using initial inoculum of 5 x 10^5 CFU/ml by serial dilution method; format: functional; conditions: PCM 2118, 18 h
[4] = system: Klebsiella pneumoniae; experiment: Antibacterial activity against Klebsiella pneumoniae ATCC 700603 incubated in MHB II under aerobic condition for 18 hrs using initial inoculum of 5 x 10^5 CFU/ml by serial dilution method; format: functional; conditions: ATCC 700603, 18 h
[5] = system: Proteus mirabilis; experiment: Antibacterial activity against Proteus mirabilis PCM 543 incubated in MHB II under aerobic condition for 18 hrs using initial inoculum of 5 x 10^5 CFU/ml by serial dilution method; format: functional; conditions: PCM 543, 18 h
[6] = system: Pseudomonas aeruginosa; experiment: Antibacterial activity against Pseudomonas aeruginosa ATCC 9027 incubated in MHB II under aerobic condition for 18 hrs using initial inoculum of 5 x 10^5 CFU/ml by serial dilution method; format: functional; conditions: ATCC 9027, 18 h
[7] = system: Escherichia coli; experiment: Antibacterial activity against Escherichia coli ATCC 25922 incubated in MHB II under aerobic condition for 18 hrs using initial inoculum of 5 x 10^5 CFU/ml by serial dilution method; format: functional; conditions: ATCC 25922, 18 h
[8] = system: Candida albicans; experiment: Antifungal activity against Candida albicans ATCC 10231 incubated in sabouraud liquid medium under aerobic condition for 48 hrs using initial inoculum of 10^3 CFU/ml by serial dilution method; format: functional; conditions: ATCC 10231, 48 h
[9] = system: Enterococcus faecalis; experiment: Antibacterial activity against Enterococcus faecalis ATCC 29212 incubated in MHB II under aerobic condition for 18 hrs using initial inoculum of 5 x 10^5 CFU/ml by serial dilution method; format: functional; conditions: ATCC 29212, 18 h
[10] = Haemolytic activity in human erythrocytes assessed as haemolytic index by measuring hemoglobin release at 128 mg/L incubated for 1 hr by microplate spectrophotometry; format: ADME, cell-based, Erythrocyte; conditions: read-out: HI
[11] = system: Yarrowia lipolytica; experiment: Antifungal activity against Candida lipolytica PCM 2680 incubated in sabouraud liquid medium under aerobic condition for 48 hrs using initial inoculum of 10^3 CFU/ml by serial dilution method; format: functional; conditions: PCM 2680, 48 h
[12] = system: Erythrocyte; experiment: (§1) Haemolytic activity in human erythrocytes assessed as haemolytic index by measuring hemoglobin release at 0.5 to 128 mg/L incubated for 1 hr by microplate spectrophotometry relative to control; format: ADME, cell-based; conditions: erythrocyte, 1 h
[13] = system: Candida albicans; experiment: […] activity against Candida albicans ATCC 10231 by antimicrobial susceptibility based testing method; format: functional
[14] = as §1; format: ADME, cell-based, Erythrocyte; conditions: human erythrocytes, read-out: HI
[15] = Haemolytic activity in human erythrocytes assessed as haemolytic index by measuring hemoglobin release at 64 mg/L incubated for 1 hr by microplate spectrophotometry; format: ADME, cell-based, Erythrocyte; conditions: read-out: HI
[16] = Haemolytic activity in human erythrocytes assessed as haemolytic index by measuring hemoglobin release at 32 mg/L incubated for 1 hr by microplate spectrophotometry; format: ADME, cell-based, Erythrocyte; conditions: read-out: HI
[17] = system: Erythrocyte; experiment: Haemolytic activity in human erythrocytes assessed as hemoglobin release at 8 to 64 mg/L incubated for 1 hr by microplate spectrophotometry; format: ADME, cell-based
[18] = system: Enterococcus faecalis; experiment: microbe, parasite or virus in culture; conditions: ATCC 29212
Description: Antibacterial activity against Enterococcus faecalis ATCC 29212 by antimicrobial susceptibility based testing method

| SMILES | MIC [1] [µg/mL] | MIC [2] [µg/mL] | MIC [3] [µg/mL] | MIC [4] [µg/mL] | MIC [5] [µg/mL] | MIC [6] [µg/mL] | MIC [7] [µg/mL] | MIC [8] [µg/mL] | MIC [9] [µg/mL] | MIC [11] [µg/mL] | hemolysis at 1 h, 128 mg/L [10] [%] | Activity [12] | MIC [13] [µg/mL] | hemolysis at 1 h [14] [%] | hemolysis at 1 h, 64 mg/L [15] [%] | hemolysis at 1 h, 32 mg/L [16] [%] | Activity [17] | MIC [18] [µg/mL] |
| --- | --- | --- | --- | --- | --- | --- | --- | --- | --- | --- | --- | --- | --- | --- | --- | --- | --- | --- |
| C[C@@H]1CC[C@@]2(OC1)O[C@H]1C[C@H]3[C@@H]4CC=C5C[C@@H](O[C@@H]6O[C@H](CO)[C@@H](O)[C@H](O)[C@H]6NC(=O)[C@@H](N)CCCCN)CC[C@]5(C)[C@H]4CC[C@]3(C)[C@H]1[C@@H]2C | 16 (≈ 22.7 µM) | 32 (≈ 45.5 µM) | 16 (≈ 22.7 µM) | > 128 | > 128 | > 128 | > 128 | 4 (≈ 5.68 µM) | 16 (≈ 22.7 µM) | 4 (≈ 5.68 µM) | 92 |  |  |  |  |  |  |  |
| C[C@@H]1CC[C@@]2(OC1)O[C@H]1C[C@H]3[C@@H]4CC=C5C[C@@H](O[C@@H]6O[C@H](CO)[C@@H](O)[C@H](O)[C@H]6N)CC[C@]5(C)[C@H]4CC[C@]3(C)[C@H]1[C@@H]2C.Cl | 16 | 8 | 16 |  |  |  |  | 2 | 16 | 1 |  | Non-Toxic |  |  |  |  |  |  |
| C[C@@H]1[C@H](O)[C@@H](C)/C=C/C=C/C=C/C=C/C=C/C=C/C=C/[C@H](O[C@@H]2O[C@H](C)[C@@H](O)[C@H](N)[C@@H]2O)C[C@@H]2O[C@](O)(C[C@@H](O)C[C@@H](O)[C@H](O)CC[C@@H](O)C[C@@H](O)CC(=O)O[C@H]1C)C[C@H](O)[C@H]2C(=O)O [AMPHOTERICIN B] |  |  |  |  |  |  |  |  |  |  |  |  | 0.5 (≈ 0.541 µM) |  |  |  |  |  |
| C[C@@H]1CC[C@@]2(OC1)O[C@H]1C[C@H]3[C@@H]4CC=C5C[C@@H](O[C@@H]6O[C@H](CO)[C@@H](O)[C@H](O)[C@H]6NC(=O)[C@@H]6CCCN6)CC[C@]5(C)[C@H]4CC[C@]3(C)[C@H]1[C@@H]2C | 4 (≈ 5.94 µM) | 8 (≈ 11.9 µM) | 4 (≈ 5.94 µM) | > 128 | > 128 | > 128 | > 128 |  | 4 (≈ 5.94 µM) |  | 100 |  |  |  | 100 | 46 |  |  |
| C[C@@H]1CC[C@@]2(OC1)O[C@H]1C[C@H]3[C@@H]4CC=C5C[C@@H](O[C@@H]6O[C@H](CO)[C@@H](O)[C@H](O)[C@H]6NC(=O)[C@H](C)NC(=O)[C@H](C)N)CC[C@]5(C)[C@H]4CC[C@]3(C)[C@H]1[C@@H]2C | 128 (≈ 178 µM) | 64 (≈ 89.1 µM) | 128 (≈ 178 µM) | > 128 | > 128 | > 128 | > 128 | 64 (≈ 89.1 µM) | > 128 | 32 (≈ 44.6 µM) | 74 |  |  |  | 57 |  |  |  |
| CN[C@H](CC(C)C)C(=O)N[C@H]1C(=O)N[C@@H](CC(N)=O)C(=O)N[C@H]2C(=O)N[C@H]3C(=O)N[C@H](C(=O)N[C@H](C(=O)O)c4cc(O)cc(O)c4-c4cc3ccc4O)[C@H](O)c3ccc(c(Cl)c3)Oc3cc2cc(c3O[C@@H]2O[C@H](CO)[C@@H](O)[C@H](O)[C@H]2O[C@H]2C[C@](C)(N)[C@H](O)[C@H](C)O2)Oc2ccc(cc2Cl)[C@H]1O [VANCOMYCIN] |  |  |  |  |  |  |  |  |  |  |  |  |  |  |  |  |  | 2 (≈ 1.38 µM) |

Continued, in another order:

| MIC [1] [µg/mL] | MIC [2] [µg/mL] | MIC [3] [µg/mL] | MIC [4] [µg/mL] | MIC [5] [µg/mL] | MIC [6] [µg/mL] | MIC [7] [µg/mL] | MIC [8] [µg/mL] | MIC [9] [µg/mL] | MIC [11] [µg/mL] | SMILES | hemolysis at 1 h, 128 mg/L [10] [%] | Activity [12] | MIC [13] [µg/mL] | hemolysis at 1 h [14] [%] | hemolysis at 1 h, 64 mg/L [15] [%] | hemolysis at 1 h, 32 mg/L [16] [%] | Activity [17] | MIC [18] [µg/mL] |
| --- | --- | --- | --- | --- | --- | --- | --- | --- | --- | --- | --- | --- | --- | --- | --- | --- | --- | --- |
| 16 (≈ 23.6 µM) | 32 (≈ 47.3 µM) | 16 (≈ 23.6 µM) | > 128 | > 128 | > 128 | > 128 | 4 (≈ 5.91 µM) | 16 (≈ 23.6 µM) | 4 (≈ 5.91 µM) | C[C@@H]1CC[C@@]2(OC1)O[C@H]1C[C@H]3[C@@H]4CC=C5C[C@@H](O[C@@H]6O[C@H](CO)[C@@H](O)[C@H](O)[C@H]6NC(=O)[C@@H](N)[C@@H](C)O)CC[C@]5(C)[C@H]4CC[C@]3(C)[C@H]1[C@@H]2C | 56 |  |  |  |  |  |  |  |
| 2 (≈ 3.09 µM) | 2 (≈ 3.09 µM) | 2 (≈ 3.09 µM) | > 128 | > 128 | > 128 | > 128 | 4 (≈ 6.18 µM) | 2 (≈ 3.09 µM) | 8 (≈ 12.4 µM) | C[C@@H]1CC[C@@]2(OC1)O[C@H]1C[C@H]3[C@@H]4CC=C5C[C@@H](O[C@@H]6O[C@H](CO)[C@@H](O)[C@H](O)[C@H]6NC(=O)[C@@H](C)N)CC[C@]5(C)[C@H]4CC[C@]3(C)[C@H]1[C@@H]2C |  |  |  | < 10 |  |  |  |  |
| 4 (≈ 6.18 µM) | 8 (≈ 12.4 µM) | 4 (≈ 6.18 µM) | > 128 | > 128 | > 128 | > 128 | 4 (≈ 6.18 µM) | 4 (≈ 6.18 µM) | 2 (≈ 3.09 µM) | C[C@@H]1CC[C@@]2(OC1)O[C@H]1C[C@H]3[C@@H]4CC=C5C[C@@H](O[C@@H]6O[C@H](CO)[C@@H](O)[C@H](O)[C@H]6NC(=O)[C@H](C)N)CC[C@]5(C)[C@H]4CC[C@]3(C)[C@H]1[C@@H]2C |  |  |  | < 10 |  |  |  |  |
| 8 (≈ 12.1 µM) | 8 (≈ 12.1 µM) | 4 (≈ 6.03 µM) | > 128 | > 128 | > 128 | > 128 | 4 (≈ 6.03 µM) | 16 (≈ 24.1 µM) | 4 (≈ 6.03 µM) | C[C@@H]1CC[C@@]2(OC1)O[C@H]1C[C@H]3[C@@H]4CC=C5C[C@@H](O[C@@H]6O[C@H](CO)[C@@H](O)[C@H](O)[C@H]6NC(=O)[C@@H](N)CO)CC[C@]5(C)[C@H]4CC[C@]3(C)[C@H]1[C@@H]2C | 46 |  |  |  |  |  |  |  |
| > 128 | > 128 | > 128 | > 128 | > 128 | > 128 | > 128 | 16 (≈ 24.1 µM) | > 128 | 2 (≈ 3.01 µM) | C[C@@H]1CC[C@@]2(OC1)O[C@H]1C[C@H]3[C@@H]4CC=C5C[C@@H](O[C@@H]6O[C@H](CO)[C@@H](O)[C@H](O)[C@H]6NC(=O)[C@@H](O)CO)CC[C@]5(C)[C@H]4CC[C@]3(C)[C@H]1[C@@H]2C | 56 |  |  |  | 27 |  |  |  |
| 64 (≈ 101 µM) | 64 (≈ 101 µM) | 64 (≈ 101 µM) | > 128 | > 128 | > 128 | > 128 | 64 (≈ 101 µM) | 64 (≈ 101 µM) | 64 (≈ 101 µM) | C[C@@H]1CC[C@@]2(OC1)O[C@H]1C[C@H]3[C@@H]4CC=C5C[C@@H](O[C@@H]6O[C@H](CO)[C@@H](O)[C@H](O)[C@H]6NC(=O)CN)CC[C@]5(C)[C@H]4CC[C@]3(C)[C@H]1[C@@H]2C | 16 |  |  |  |  |  | Toxic |  |
